Where two headings read alike, the source gives them in different places.
How the values were obtained:
Assay in all cases: cells
AsPC-1 [1] = system: AsPC-1; design: ATPlite luminescence viability of PDAC cell lines, 11-dose single-agent curves, 4-parameter fit; conditions: Homo sapiens, ASPC1, 72 h, read-out: EC50 [nM]
Summary of the method: (§1)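 Drug-combination screening used cells plated at 1000 to 5000 per well one day before treatment. Final DMSO was 0.2%. Each plate held untreated negative-control wells and 5 µM staurosporine positive-control wells.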

BxPC-3 [2] = system: BxPC-3; design: ATPlite luminescence viability of PDAC cell lines, 11-dose single-agent curves, 4-parameter fit; conditions: Homo sapiens, BXPC-3, 72 h, read-out: EC50 [nM]
Summary of the method: as §1

Colo-357 [3] = system: Colo-357; design: ATPlite luminescence viability of PDAC cell lines, 11-dose single-agent curves, 4-parameter fit; conditions: Homo sapiens, COLO357, 72 h, read-out: EC50 [nM]
Summary of the method: as §1

Dan-G [4] = system: Dan-G; design: ATPlite luminescence viability of PDAC cell lines, 11-dose single-agent curves, 4-parameter fit; conditions: 72 h, read-out: EC50 [nM]
Summary of the method: as §1

MiaPaCa-2 [5] = system: MiaPaCa-2; design: ATPlite luminescence viability of PDAC cell lines, 11-dose single-agent curves, 4-parameter fit; conditions: Homo sapiens, MIA PaCa-2, 72 h, read-out: EC50 [nM]
Summary of the method: as §1

PaTu-8988-T [6] = system: PaTu-8988-T; design: ATPlite luminescence viability of PDAC cell lines, 11-dose single-agent curves, 4-parameter fit; conditions: Homo sapiens, PaTu 8988t, 72 h, read-out: EC50 [nM]
Summary of the method: as §1

Capan-1 = system: Capan-1; design: Viability of PDAC cell lines, ATPlite luminescence, 11-dose single-agent curve fit; conditions: Homo sapiens, CAPAN-1, 72 h, read-out: EC50 [nM]
Summary of the method: (§2)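 screening used cells plated at 1000 to 5000 per well one day before treatment. Final DMSO was 0.2%. Each plate held untreated negative-control wells and 5 µM staurosporine positive-control wells.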

FAMPAC [7] = system: FAMPAC; design: Viability of PDAC cell lines, ATPlite luminescence, 11-dose single-agent curve fit; conditions: 72 h, read-out: EC50 [nM]
Summary of the method: as §2

HPDE = system: HPDE; design: Viability of PDAC cell lines, ATPlite luminescence, 11-dose single-agent curve fit; conditions: HPDE, 72 h, read-out: EC50 [nM]
Summary of the method: as §2

HuP-T4 = system: HuP-T4; design: Viability of PDAC cell lines, ATPlite luminescence, 11-dose single-agent curve fit; conditions: Homo sapiens, HuP-T4, 72 h, read-out: EC50 [nM]
Summary of the method: as §2

PANC-1 = system: PANC-1; design: Viability of PDAC cell lines, ATPlite luminescence, 11-dose single-agent curve fit; conditions: Homo sapiens, PANC-1, 72 h, read-out: EC50 [nM]
Summary of the method: as §2

PSN-1 [8] = system: PSN-1; design: Viability of PDAC cell lines, ATPlite luminescence, 11-dose single-agent curve fit; conditions: Homo sapiens, PSN1, 72 h, read-out: EC50 [nM]
Summary of the method: as §2

Suit2-07 [9] = system: Suit2-07; design: Viability of PDAC cell lines, ATPlite luminescence, 11-dose single-agent curve fit; conditions: 72 h, read-out: EC50 [nM]
Summary of the method: as §2

Suit2-07 [10] = system: Suit2-07; design: ATPlite luminescence viability of PDAC cell lines, 11-dose single-agent curves, 4-parameter fit; conditions: 72 h, read-out: EC50 [nM]
Summary of the method: as §1

Colo-357 [11] = system: Colo-357; design: Viability of PDAC cell lines, ATPlite luminescence, 11-dose single-agent curve fit; conditions: Homo sapiens, COLO357, 72 h, read-out: EC50 [nM]
Summary of the method: as §2

Dan-G [12] = system: Dan-G; design: Viability of PDAC cell lines, ATPlite luminescence, 11-dose single-agent curve fit; conditions: 72 h, read-out: EC50 [nM]
Summary of the method: as §2

PaTu-8988-T [13] = system: PaTu-8988-T; design: Viability of PDAC cell lines, ATPlite luminescence, 11-dose single-agent curve fit; conditions: Homo sapiens, PaTu 8988t, 72 h, read-out: EC50 [nM]
Summary of the method: as §2

FAMPAC [14] = system: FAMPAC; design: ATPlite luminescence viability of PDAC cell lines, 11-dose single-agent curves, 4-parameter fit; conditions: 72 h, read-out: EC50 [nM]
Summary of the method: as §1

PSN-1 [15] = system: PSN-1; design: ATPlite luminescence viability of PDAC cell lines, 11-dose single-agent curves, 4-parameter fit; conditions: Homo sapiens, PSN1, 72 h, read-out: EC50 [nM]
Summary of the method: as §1

AsPC-1 [16] = system: AsPC-1; design: Viability of PDAC cell lines, ATPlite luminescence, 11-dose single-agent curve fit; conditions: Homo sapiens, ASPC1, 72 h, read-out: EC50 [nM]
Summary of the method: as §2

BxPC-3 [17] = system: BxPC-3; design: Viability of PDAC cell lines, ATPlite luminescence, 11-dose single-agent curve fit; conditions: Homo sapiens, BXPC-3, 72 h, read-out: EC50 [nM]
Summary of the method: as §2

MiaPaCa-2 [18] = system: MiaPaCa-2; design: Viability of PDAC cell lines, ATPlite luminescence, 11-dose single-agent curve fit; conditions: Homo sapiens, MIA PaCa-2, 72 h, read-out: EC50 [nM]
Summary of the method: as §2

| SMILES | EC50 (AsPC-1 [1]) [nM] | EC50 (BxPC-3 [2]) [nM] | EC50 (Colo-357 [3]) [nM] | EC50 (Dan-G [4]) [nM] | EC50 (MiaPaCa-2 [5]) [nM] | EC50 (PaTu-8988-T [6]) [nM] | EC50 (Capan-1) [nM] | EC50 (FAMPAC [7]) [nM] | EC50 (HPDE) [nM] | EC50 (HuP-T4) [nM] | EC50 (PANC-1) [nM] | EC50 (PSN-1 [8]) [nM] | EC50 (Suit2-07 [9]) [nM] | EC50 (Suit2-07 [10]) [nM] | EC50 (Colo-357 [11]) [nM] | EC50 (Dan-G [12]) [nM] | EC50 (PaTu-8988-T [13]) [nM] | EC50 (FAMPAC [14]) [nM] | EC50 (PSN-1 [15]) [nM] | EC50 (AsPC-1 [16]) [nM] | also measured |
| --- | --- | --- | --- | --- | --- | --- | --- | --- | --- | --- | --- | --- | --- | --- | --- | --- | --- | --- | --- | --- | --- |
| Cc1nc(NC(=O)N2CCC[C@H]2C(N)=O)sc1-c1ccnc(C(C)(C)C(F)(F)F)c1 [Alpelisib] | 3740 | 1640 | 355 | 661 | 1400 | 3930 | 5110 | 3750 | 7680 | 21.8 | > 10000 | 269 | 2060 | – | – | – | – | – | – | – | – |
| CC(C)N1CCN(Cc2cnc(-c3cc(-c4cccc5[nH]ccc45)cc4[nH]ncc34)o2)CC1 [Nemiralisib] | > 10000 | 4420 | – | – | > 10000 | – | 10.5 | > 10000 | 7360 | 3260 | > 10000 | 5830 | – | > 10000 | 3010 | 5040 | 811 | – | – | – | – |
| COC(=O)N[C@@H](C)CNc1nccc(-c2cn(C(C)C)nc2-c2cc(Cl)cc(NS(C)(=O)=O)c2F)n1 [Encorafenib] | 3210 | 296 | 1020 | 620 | 1290 | – | 453 | – | 1140 | – | 6620 | – | – | 1790 | – | – | 1220 | 943 | 800 | – | – |
| CO[C@]1(C(=O)N[C@@H](C)c2ccc(-n3cc(F)cn3)nc2)CC[C@H](c2nc(C)cc(Nc3cc(C)[nH]n3)n2)CC1 [Pralsetinib] | – | 2910 | 6960 | 6680 | 773 | 6490 | > 10000 | – | 4600 | 4550 | 1860 | – | – | > 10000 | – | – | – | 5210 | 5870 | 1820 | – |
| Cn1cnc2c(F)c(Nc3ccc(Br)cc3F)c(C(=O)NOCCO)cc21 [Binimetinib] | 83.9 | 381 | – | – | 10.7 | – | 401 | – | 222 | 176 | 350 | – | 112 | – | 58.4 | 504 | 155 | 2430 | 71.8 | – | – |
| Cc1cc2c(F)c(Oc3ncnn4cc(OC[C@@H](C)OC(=O)[C@H](C)N)c(C)c34)ccc2[nH]1 [Brivanib alaninate] | – | – | 3560 | – | – | – | > 10000 | > 10000 | 3160 | 2460 | 3760 | 3990 | > 10000 | – | – | 3820 | > 10000 | – | – | 3000 | EC50 (BxPC-3 [17]): > 10000 nM; EC50 (MiaPaCa-2 [18]): 3140 nM |
| COCc1c(-c2cc3cc(C)cc(OC)c3s2)c2c(N)ncnn2c1CN1CCNC(=O)C1 [Rogaratinib] | 3450 | 4270 | – | 3460 | 2050 | 3870 | 5610 | – | 7330 | 24.2 | 3980 | – | – | > 10000 | 3150 | – | – | 3300 | 3270 | – | – |
| CC(=O)c1c(C)c2cnc(Nc3ccc(N4CCNCC4)cn3)nc2n(C2CCCC2)c1=O [Palbociclib] | – | – | 5610 | 8540 | > 10000 | > 10000 | 5070 | 1390 | > 10000 | 0.1 | > 10000 | – | – | > 10000 | – | – | – | – | > 10000 | 4830 | EC50 (BxPC-3 [17]): 2930 nM |
